Measurements: ChEMBL document CHEMBL1201862, “PubChem BioAssay data set” (2004)
Active and inactive are the calls of the source.

Legend:
Hexokinase HKDC1 = molecular target: T1, Hexokinase HKDC1 (Homo sapiens, UniProt Q2TB90); experiment: SAR analysis of small molecule inhibitors of hexokinase domain containing I (HKDC1). [Related pubchem assays (depositor defined):AID493160, AID493190]; type: functional
T1 sequence (Q2TB90 whole entry): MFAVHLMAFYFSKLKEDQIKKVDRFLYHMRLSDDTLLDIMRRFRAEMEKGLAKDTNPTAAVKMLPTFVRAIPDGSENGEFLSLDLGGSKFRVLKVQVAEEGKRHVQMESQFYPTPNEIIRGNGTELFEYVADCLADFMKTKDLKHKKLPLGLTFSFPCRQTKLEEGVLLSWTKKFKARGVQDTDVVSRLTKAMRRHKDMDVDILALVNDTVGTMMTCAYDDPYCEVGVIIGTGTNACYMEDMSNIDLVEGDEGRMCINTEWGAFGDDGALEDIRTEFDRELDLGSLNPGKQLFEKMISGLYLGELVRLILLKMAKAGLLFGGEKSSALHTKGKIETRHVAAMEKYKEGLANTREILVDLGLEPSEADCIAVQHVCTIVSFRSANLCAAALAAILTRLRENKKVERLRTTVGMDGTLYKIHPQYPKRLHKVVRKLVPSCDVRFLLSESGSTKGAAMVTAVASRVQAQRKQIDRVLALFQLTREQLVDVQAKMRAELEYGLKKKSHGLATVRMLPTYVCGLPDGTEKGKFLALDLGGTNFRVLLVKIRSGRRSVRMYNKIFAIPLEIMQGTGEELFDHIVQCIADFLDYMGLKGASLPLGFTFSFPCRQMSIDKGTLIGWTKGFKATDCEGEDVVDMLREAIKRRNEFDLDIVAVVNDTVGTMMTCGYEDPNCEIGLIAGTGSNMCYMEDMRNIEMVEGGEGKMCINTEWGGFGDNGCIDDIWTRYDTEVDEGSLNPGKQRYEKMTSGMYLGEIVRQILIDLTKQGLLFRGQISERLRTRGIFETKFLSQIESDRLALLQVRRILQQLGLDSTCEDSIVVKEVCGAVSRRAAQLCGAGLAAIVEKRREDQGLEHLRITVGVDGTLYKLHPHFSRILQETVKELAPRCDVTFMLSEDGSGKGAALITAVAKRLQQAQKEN

Hexokinase-1 = Hexokinase-1 (Homo sapiens, UniProt P19367); experiment: SAR analysis of small molecule inhibitors of hexokinase domain containing I (HKDC1) in the hexokinase 1 selectivity assay. [Related pubchem assays (depositor defined):AID493160, AID493190]; type: functional
Major prion protein = Major prion protein (Homo sapiens, UniProt P04156); type: functional, cell-based
HEK293 = experiment: cells; type: functional, cell-based; settings: Homo sapiens
[1] = molecular target: T2, Nuclear receptor subfamily 0 group B member 1 (Homo sapiens, UniProt P51843); experiment: Luminescence-based cell-based high throughput dose response assay for inhibitors of the orphan nuclear receptor subfamily 0, group B, member 1 (DAX1; NR0B1). [Related pubchem assays (depositor defined):AID504766, AID504790]; type: functional
T2 sequence (P51843 whole entry): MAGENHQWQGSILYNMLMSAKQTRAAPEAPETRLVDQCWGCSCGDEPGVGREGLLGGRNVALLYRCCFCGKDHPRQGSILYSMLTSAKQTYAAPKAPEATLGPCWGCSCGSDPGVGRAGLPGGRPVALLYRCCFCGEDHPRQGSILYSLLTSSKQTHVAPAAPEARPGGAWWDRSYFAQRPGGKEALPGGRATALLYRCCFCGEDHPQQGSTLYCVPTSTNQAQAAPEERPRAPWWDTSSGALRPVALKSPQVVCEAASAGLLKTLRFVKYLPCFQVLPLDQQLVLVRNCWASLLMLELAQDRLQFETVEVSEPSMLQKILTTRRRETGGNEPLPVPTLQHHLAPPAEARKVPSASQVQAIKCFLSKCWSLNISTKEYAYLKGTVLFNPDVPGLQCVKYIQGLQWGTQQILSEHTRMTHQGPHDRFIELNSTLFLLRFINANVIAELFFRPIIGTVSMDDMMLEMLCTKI

BJ [2] = experiment: cells; type: functional, cell-based; settings: Homo sapiens
ORF 73 = molecular target: T3, ORF 73 (Human herpesvirus 8, UniProt O40947); experiment: inhibitors of C-LANA binding to LBS DNA, dose response, biochemical, fluorescence polarization, cherry-picked samples (AID 504725); set-up: species or system Human gammaherpesvirus 8;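 also: fluorescence polarization of a labeled DNA duplex reporting LANA DNA binding; potency is for inhibitors that block LANA binding to the DNA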
T3 sequence (O40947 whole entry): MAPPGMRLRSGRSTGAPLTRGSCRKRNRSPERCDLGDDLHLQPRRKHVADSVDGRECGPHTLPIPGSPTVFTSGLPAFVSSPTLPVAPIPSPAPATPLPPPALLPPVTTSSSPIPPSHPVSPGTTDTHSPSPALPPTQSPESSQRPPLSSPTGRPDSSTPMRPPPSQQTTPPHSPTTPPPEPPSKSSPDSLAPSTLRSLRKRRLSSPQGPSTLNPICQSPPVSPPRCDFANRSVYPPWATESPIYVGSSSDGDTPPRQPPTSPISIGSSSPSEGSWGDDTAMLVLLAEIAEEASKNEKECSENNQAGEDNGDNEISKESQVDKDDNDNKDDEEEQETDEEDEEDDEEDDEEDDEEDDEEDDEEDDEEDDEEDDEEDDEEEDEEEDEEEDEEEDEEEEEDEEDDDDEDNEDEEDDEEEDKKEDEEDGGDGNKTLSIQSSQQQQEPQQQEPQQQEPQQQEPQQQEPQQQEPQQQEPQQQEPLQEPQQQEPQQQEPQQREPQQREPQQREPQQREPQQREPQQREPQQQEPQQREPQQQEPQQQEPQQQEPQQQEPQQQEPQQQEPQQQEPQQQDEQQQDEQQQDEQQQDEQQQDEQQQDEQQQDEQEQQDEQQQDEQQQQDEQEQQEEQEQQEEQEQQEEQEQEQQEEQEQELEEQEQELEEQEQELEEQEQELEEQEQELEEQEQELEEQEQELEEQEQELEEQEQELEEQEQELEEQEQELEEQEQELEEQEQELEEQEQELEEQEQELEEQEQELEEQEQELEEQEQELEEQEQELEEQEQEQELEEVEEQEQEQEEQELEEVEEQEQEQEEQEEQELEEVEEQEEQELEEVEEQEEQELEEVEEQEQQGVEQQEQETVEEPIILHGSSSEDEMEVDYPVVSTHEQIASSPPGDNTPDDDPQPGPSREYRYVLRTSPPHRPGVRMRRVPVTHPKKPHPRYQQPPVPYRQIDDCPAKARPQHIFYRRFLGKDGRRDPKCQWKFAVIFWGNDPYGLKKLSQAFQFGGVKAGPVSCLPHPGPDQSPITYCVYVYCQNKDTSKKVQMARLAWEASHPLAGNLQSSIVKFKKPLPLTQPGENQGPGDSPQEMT

BJ [3] = experiment: cytotoxicity toward BJ-TERT-LT-ST fibroblasts, dose response, cell-based, RAS-independent, luminescence (AID 1935); type: functional; settings: Homo sapiens;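 also: BJ fibroblasts immortalized with TERT plus LT and ST oncogenes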
INS1 = experiment: beta cell apoptosis inhibitors, cytokine rescue, dose response, luminescence, retest (AID 449756); type: functional, cell-based; settings: Rattus norvegicus;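 also: cell death triggered by IL-1 beta plus TNF-alpha plus IFN-gamma mixture; protective hits raise ATP signal compared with cytokine alone wells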
[4] = cytotoxicity toward DRD oncogenic fibroblasts, dose response, cell-based, non-viral oncogenic, luminescence (AID 1934); type: functional; settings: Homo sapiens
Protein S100-A4 = Protein S100-A4 (Homo sapiens, UniProt P26447); experiment: S100A4-myosin IIA binding inhibitor potency, dose response, biochemical, fluorescence polarization, cherry-picked hits (AID 687001); type: functional
BJ [5] = experiment: cytotoxicity toward BJ-TERT fibroblasts, dose response, cell-based, RAS-independent, luminescence (AID 1933); type: functional; settings: Homo sapiens
Keap1/Nrf2 = Keap1/Nrf2 (Homo sapiens, UniProt Q14145); experiment: Keap1-Nrf2 protein-protein interaction inhibitors, dose response, biochemical, fluorescence polarization, cherry-picked samples (AID 588683)
[6] = molecular target: T4, Replicative DNA helicase DnaB (Mycobacterium tuberculosis, UniProt P9WMR3); experiment: DnaB intein splicing inhibitors, dose response, biochemical, cell-free fluorescence (AID 449749); type: functional
T4 sequence (P9WMR3 whole entry): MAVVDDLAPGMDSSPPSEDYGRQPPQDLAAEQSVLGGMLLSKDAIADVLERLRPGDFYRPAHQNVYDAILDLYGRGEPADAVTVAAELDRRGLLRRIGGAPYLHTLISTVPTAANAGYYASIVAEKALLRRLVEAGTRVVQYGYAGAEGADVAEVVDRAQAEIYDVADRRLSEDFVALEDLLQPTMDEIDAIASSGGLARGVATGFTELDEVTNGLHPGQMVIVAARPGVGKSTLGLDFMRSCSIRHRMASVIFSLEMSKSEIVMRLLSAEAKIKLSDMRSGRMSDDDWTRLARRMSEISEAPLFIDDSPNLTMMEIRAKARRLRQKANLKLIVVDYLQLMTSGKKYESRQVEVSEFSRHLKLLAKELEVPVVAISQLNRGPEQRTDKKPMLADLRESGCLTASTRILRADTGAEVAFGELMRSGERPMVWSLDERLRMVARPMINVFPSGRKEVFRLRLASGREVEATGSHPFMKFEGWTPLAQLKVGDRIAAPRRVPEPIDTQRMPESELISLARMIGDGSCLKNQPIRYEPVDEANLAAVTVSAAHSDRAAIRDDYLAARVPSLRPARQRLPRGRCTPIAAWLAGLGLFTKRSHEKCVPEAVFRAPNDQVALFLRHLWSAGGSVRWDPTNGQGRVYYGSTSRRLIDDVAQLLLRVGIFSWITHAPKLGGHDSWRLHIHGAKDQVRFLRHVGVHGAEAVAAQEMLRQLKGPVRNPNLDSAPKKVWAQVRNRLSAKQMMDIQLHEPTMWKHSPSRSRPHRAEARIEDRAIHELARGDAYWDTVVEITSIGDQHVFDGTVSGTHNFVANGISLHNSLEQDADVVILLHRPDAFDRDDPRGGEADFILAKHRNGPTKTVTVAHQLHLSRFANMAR

Protein RecA = molecular target: T5, Protein RecA (Mycobacterium tuberculosis, UniProt P9WHJ3); experiment: Fluorescence Cell-Free Homogeneous Dose Retest to Identify Inhibitors of RecA-Intein Splicing Activity. [Related pubchem assays (depositor defined):AID2097, AID2223, AID489010, AID492950]; type: functional
T5 sequence (P9WHJ3 whole entry): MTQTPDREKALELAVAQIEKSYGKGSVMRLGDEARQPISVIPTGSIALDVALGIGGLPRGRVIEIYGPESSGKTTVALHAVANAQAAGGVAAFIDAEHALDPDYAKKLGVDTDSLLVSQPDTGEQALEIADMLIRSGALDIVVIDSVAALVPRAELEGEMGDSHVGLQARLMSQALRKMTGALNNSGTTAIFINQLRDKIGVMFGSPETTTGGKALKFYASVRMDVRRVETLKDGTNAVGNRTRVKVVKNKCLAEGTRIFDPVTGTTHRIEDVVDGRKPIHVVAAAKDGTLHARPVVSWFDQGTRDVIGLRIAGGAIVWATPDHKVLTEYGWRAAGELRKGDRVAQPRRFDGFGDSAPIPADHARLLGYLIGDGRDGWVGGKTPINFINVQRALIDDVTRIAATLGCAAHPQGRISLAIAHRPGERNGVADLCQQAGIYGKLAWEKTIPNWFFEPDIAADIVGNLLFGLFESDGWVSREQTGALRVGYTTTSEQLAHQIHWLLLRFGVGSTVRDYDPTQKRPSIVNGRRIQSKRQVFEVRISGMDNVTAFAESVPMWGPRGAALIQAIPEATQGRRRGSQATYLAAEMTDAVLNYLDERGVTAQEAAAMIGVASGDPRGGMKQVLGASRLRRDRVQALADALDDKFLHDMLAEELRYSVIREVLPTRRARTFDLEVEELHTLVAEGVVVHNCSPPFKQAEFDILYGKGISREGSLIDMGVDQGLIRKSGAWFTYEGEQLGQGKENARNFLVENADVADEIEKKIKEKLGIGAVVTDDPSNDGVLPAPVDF

HeLa = experiment: HeLa cell cytotoxicity, dose response, cytotoxicity control, 24 h, cherry-picked samples (AID 504726); type: functional, cell-based; settings: Homo sapiens;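 also: potency for cytotoxicity as loss of luminescence signal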
[7] = molecular target: T6, RNA-binding protein pos-1 (Caenorhabditis elegans, UniProt G5EF15); experiment: inhibitors of POS-1/mex-3 RNA binding, dose response, biochemical, fluorescence polarization (AID 1964);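 also: purified POS-1 fused to maltose binding protein made in E. coli; potency of compounds blocking POS-1 binding to fluorescent RNA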
T6 sequence (G5EF15 whole entry): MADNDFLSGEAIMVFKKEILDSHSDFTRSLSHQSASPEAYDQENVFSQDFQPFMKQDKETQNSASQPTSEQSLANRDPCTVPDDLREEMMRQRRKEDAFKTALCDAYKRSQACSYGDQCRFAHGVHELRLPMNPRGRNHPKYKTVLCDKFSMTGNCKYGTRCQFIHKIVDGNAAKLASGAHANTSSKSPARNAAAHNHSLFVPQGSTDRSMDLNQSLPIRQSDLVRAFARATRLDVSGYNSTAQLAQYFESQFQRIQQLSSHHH

[8] = molecular target: UDP-galactopyranose mutase (Mycobacterium tuberculosis, UniProt P9WIQ1); experiment: Inhibitors of Mycobacterium tuberculosis UDP-galactopyranose mutase (UGM) enzyme Measured in Biochemical System Using Plate Reader - 2105-02_Inhibitor_Dose_CherryPick_Activity. [Related pubchem assays (depositor defined):AID504439]
Plasmodium falciparum [9] = experiment: Primary qHTS for delayed death inhibitors of the malarial parasite plastid, 96 hour incubation. [Related pubchem assays (depositor defined):AID488745, AID488752, AID488774, AID504848, AID504850]; type: functional; settings: read-out: Potency
Plasmodium falciparum [10] = experiment: Primary qHTS for delayed death inhibitors of the malarial parasite plastid, 48 hour incubation. [Related pubchem assays (depositor defined):AID488752, AID488774, AID504848, AID504850]; type: functional; settings: read-out: Potency

Protein S100-A4, sequence (P26447 whole entry): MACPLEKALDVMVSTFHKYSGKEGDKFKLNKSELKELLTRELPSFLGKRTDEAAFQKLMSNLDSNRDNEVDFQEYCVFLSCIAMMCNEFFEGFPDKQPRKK
Hexokinase-1, sequence (P19367 whole entry, the tested form may be a part): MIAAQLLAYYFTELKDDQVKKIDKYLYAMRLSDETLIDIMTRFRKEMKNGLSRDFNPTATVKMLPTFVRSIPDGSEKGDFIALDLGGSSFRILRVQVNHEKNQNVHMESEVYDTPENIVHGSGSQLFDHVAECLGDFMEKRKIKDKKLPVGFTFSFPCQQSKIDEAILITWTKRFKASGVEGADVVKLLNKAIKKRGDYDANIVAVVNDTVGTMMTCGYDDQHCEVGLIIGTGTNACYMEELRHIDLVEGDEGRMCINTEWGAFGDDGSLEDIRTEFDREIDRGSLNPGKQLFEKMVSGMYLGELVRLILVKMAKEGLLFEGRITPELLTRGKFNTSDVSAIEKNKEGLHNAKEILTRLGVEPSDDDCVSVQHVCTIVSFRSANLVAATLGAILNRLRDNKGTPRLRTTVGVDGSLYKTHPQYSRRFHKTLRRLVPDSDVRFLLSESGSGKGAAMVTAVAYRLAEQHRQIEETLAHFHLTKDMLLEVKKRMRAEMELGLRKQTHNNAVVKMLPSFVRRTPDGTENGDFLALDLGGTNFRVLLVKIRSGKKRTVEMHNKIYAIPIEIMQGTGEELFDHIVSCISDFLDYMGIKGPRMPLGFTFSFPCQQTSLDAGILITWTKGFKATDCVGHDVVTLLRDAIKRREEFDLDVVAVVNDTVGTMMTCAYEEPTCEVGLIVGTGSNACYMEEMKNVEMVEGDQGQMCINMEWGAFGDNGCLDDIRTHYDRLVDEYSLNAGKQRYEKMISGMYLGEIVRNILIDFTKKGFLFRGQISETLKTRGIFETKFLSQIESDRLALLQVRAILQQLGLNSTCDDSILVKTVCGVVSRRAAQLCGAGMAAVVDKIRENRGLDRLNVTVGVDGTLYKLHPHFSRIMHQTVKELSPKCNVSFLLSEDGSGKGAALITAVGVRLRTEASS
UDP-galactopyranose mutase, sequence (P9WIQ1 whole entry): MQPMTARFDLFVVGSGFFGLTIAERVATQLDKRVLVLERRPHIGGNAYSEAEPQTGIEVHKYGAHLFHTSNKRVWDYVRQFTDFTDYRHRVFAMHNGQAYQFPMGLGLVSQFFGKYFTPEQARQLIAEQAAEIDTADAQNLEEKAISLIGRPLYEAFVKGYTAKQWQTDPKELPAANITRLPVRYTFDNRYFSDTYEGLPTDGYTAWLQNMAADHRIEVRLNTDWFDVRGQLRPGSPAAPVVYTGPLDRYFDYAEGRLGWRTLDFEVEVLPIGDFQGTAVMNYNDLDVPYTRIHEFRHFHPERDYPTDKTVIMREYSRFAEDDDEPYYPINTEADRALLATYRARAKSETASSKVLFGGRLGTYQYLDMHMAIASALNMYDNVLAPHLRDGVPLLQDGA
Keap1/Nrf2, sequence (Q16236 whole entry): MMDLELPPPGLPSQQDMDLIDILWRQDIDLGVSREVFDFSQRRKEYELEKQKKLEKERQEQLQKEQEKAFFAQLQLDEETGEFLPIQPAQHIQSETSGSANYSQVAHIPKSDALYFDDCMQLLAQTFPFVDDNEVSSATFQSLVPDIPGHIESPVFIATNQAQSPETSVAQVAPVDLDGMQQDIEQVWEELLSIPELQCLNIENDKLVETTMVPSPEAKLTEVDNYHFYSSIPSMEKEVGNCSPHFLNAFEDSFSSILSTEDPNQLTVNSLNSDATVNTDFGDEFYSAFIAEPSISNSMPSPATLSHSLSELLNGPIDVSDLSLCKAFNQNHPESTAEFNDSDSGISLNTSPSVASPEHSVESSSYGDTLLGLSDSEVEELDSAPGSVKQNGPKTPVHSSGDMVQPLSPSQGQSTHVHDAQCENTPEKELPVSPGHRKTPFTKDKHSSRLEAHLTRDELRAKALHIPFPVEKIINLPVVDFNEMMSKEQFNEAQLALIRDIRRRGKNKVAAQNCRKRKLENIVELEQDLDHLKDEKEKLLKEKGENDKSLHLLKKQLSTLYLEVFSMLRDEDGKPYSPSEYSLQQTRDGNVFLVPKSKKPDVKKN
Keap1/Nrf2, sequence (Q14145 whole entry): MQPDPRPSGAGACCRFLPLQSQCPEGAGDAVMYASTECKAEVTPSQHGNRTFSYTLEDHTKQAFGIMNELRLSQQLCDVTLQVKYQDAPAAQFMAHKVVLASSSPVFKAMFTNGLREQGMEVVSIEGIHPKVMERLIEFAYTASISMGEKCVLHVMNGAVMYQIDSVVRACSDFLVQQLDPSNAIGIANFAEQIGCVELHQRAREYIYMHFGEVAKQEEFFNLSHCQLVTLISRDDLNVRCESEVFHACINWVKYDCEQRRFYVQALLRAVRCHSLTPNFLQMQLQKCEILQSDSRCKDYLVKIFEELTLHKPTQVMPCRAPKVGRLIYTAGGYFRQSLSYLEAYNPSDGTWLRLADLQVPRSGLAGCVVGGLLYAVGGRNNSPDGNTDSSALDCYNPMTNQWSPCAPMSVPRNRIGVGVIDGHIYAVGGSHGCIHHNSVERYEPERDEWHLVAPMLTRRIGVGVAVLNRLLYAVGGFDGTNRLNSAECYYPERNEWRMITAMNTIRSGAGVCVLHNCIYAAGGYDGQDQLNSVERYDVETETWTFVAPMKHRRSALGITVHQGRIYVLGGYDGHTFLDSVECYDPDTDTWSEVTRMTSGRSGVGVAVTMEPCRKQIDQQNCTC

## COc1cc2c(cc1OC)-c1cc(NCc3ccccc3)nc(=O)n1CC2
Hexokinase HKDC1
  IC50: > 80 µM (inactive)
Hexokinase-1
  IC50: > 80 µM (inactive)

## CC(C)CSc1nnc2c3ccccc3n(C)c2n1
cells
  IC50: > 138 µM (inactive)
Major prion protein
  IC50: 4.37 µM (active)
HEK293
  IC50: > 67.5 µM (inactive)
[1]
  IC50: > 67.5 µM (inactive)

## CN1CCN(c2ccc([N+](=O)[O-])c3no[n+]([O-])c23)CC1
BJ [2]
  EC50: 2.37 µM (inconclusive)
ORF 73
  AC50: 12.6 µM (active)
BJ [3]
  EC50: 1.13 µM (inconclusive)
INS1
  AC50: 1.83 µM (active)
[4]
  EC50: 5.89 µM (active)
Protein S100-A4
  AC50: 3.3 µM (active)
BJ [5]
  EC50: 0.793 µM (active)
Keap1/Nrf2
  AC50: > 52 µM (inactive)
[6]
  AC50: > 380 µM (inactive)
Protein RecA
  EC50: > 380 µM (inactive)
HeLa
  AC50: 2.57 µM (active)

## COCCNC(=O)Cn1cc(/C=C2\C(=O)NC(=O)N(c3ccccc3F)C2=O)c2ccccc21
[7]
  EC50: 6.32 µM (active)
[8]
  AC50: 32.1 µM (active)

## CN(C)C1(CNC(=O)c2ccc(Cl)c(S(N)(=O)=O)c2)CCCCC1
Plasmodium falciparum [9]
  AC50: 20.8 µM (inactive)
Plasmodium falciparum [10]
  AC50: 9.29 µM (inactive)
